Results reported in patent publication US8569484B2, “Heterocyclic urea derivatives and methods of use thereof” (Astrazeneca AB, priority 2009, dated 2013).

Target: S. aureus GyrB ATPase (Staphylococcus aureus, UniProt P0A0K8)
Experiment: S. aureus GyrB ATPase inhibition (ammonium molybdate/malachite green phosphate detection)
Format: biochemical
Details: 1 μM compound; S. aureus GyrB ATPase; read-out: Percent Inhibition (1 μM)
Experimental: S. aureus GyrB ATPase Inhibition Activity: Compounds may be tested for inhibition of S. aureus GyrB ATPase activity using an ammonium molybdate/malachite green-based phosphate detection assay (Lanzetta, P. A., L. J. Alvarez, P. S. Reinach, and O. A. Candia, 1979, 100: 95-97). Assays can be performed in multiwell plates in 30 μl reactions containing: 50 mM Hepes buffer pH 7.5, 75 mM ammonium acetate, 8.0 mM magnesium chloride, 0.5 mM ethylenediaminetetraacetic acid, 5% glycerol, 1.0 mM 1,4-Dithio-DL-threitol, 200 nM bovine serum albumin, 1.0 μg/ml sheared salmon sperm DNA, 250 pM E. coli GyrA, 250 pM S. aureus GyrB, 250 μM ATP, and compound in dimethylsulfoxide. Reactions can be quenched with 30 μl of ammonium molybdate/malachite green detection reagent containing 1.2 mM malachite green hydrochloride, 8.5 mM ammonium molybdate tetrahydrate, and 1 M hydrochloric acid. Plates can be read in an absorbance plate reader at 650 nm and percent inhibition values can be calculated using dimethylsulfoxide (2%)-containing reactions as 0% inhibition and EDTA-containing ([…]) reactions as 100% inhibition controls. An IC50 measurement of compound potency for each compound can be determined from reactions performed in the presence of 10 different compound concentrations.

Chain of S. aureus GyrB ATPase (P0AES4 whole entry): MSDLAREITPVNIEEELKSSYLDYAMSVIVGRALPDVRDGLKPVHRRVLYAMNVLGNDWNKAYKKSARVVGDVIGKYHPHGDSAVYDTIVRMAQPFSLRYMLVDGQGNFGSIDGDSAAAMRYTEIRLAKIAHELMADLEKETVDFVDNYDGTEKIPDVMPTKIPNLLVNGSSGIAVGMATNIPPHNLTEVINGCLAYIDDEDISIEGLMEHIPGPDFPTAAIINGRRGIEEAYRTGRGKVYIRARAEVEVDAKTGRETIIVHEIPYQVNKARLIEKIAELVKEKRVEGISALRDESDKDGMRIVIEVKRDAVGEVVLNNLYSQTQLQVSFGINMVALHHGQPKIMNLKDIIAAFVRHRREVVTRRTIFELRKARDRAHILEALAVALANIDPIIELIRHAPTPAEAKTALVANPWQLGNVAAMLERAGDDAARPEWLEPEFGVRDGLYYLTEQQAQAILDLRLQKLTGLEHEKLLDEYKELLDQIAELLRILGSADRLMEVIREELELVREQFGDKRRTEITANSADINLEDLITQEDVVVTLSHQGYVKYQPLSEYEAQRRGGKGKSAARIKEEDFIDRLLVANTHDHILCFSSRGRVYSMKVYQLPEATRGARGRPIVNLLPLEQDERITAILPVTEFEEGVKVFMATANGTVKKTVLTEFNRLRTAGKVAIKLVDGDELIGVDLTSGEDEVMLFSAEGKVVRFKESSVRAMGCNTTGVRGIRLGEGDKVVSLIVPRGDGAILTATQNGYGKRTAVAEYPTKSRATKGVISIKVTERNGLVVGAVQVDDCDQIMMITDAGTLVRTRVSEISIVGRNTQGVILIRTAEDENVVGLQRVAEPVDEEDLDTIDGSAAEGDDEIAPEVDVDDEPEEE
Chain of S. aureus GyrB ATPase (P0A0K8 whole entry): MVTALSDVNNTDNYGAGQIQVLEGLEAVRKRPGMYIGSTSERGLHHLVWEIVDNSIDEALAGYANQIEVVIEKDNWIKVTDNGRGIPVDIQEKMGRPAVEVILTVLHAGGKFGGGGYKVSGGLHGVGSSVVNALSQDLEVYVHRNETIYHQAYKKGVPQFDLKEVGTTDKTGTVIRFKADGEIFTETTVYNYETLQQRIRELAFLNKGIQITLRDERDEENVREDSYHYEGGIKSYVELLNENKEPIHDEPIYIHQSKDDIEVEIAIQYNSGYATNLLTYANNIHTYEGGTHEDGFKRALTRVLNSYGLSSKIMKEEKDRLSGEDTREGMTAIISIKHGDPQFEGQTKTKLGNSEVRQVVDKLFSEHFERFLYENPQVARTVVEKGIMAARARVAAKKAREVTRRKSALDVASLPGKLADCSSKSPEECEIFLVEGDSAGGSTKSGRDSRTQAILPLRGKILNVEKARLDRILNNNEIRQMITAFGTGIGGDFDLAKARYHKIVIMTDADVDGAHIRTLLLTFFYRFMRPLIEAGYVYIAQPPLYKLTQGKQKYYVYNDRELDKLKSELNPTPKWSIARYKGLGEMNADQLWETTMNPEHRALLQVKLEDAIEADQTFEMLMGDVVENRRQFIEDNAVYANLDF

Row | SMILES | inhibition at 1 µM
1 | CCNC(=O)Nc1cc(-c2nc(C(F)(F)F)cs2)c(-c2cc3c(=O)c(C(=O)O)cn(C4CN(C)C4)c3cn2)cn1 [Example 70] | 102%
2 | CCNC(=O)Nc1cc(-c2nc(C(F)(F)F)cs2)c(-c2cc3c(=O)c(C(=O)O)cn(CCOC)c3cn2)cn1 [Example 46] | 106%
3 | CCNC(=O)Nc1cc(-c2nc(C(F)(F)F)cs2)c(-c2cc3c(=O)c(C(=O)O)cn(C[C@H]4CCCN4CC)c3cn2)cn1 [Example 41] | 102%
4 | CCNC(=O)Nc1cc(-c2nc(C(F)(F)F)cs2)c(-c2cc3c(=O)c(C(=O)O)cn([C@H](CO)C(C)(C)C)c3nc2N2CCC(N)C2)cn1 (stereo partly drawn) [Example 78, 7-(3-aminopyrrolidin-1-yl)-6-(6-(3-ethylureido)-4-(4-(trifluoromethyl)thiazol-2-yl)pyridin-3-yl)-1-((S)-1-hydroxy-3,3-dimethylbutan-2-yl)-4-oxo-1,4-dihydro-1,8-naphthyridine-3-carboxylic acid] | 98%
5 | CCNC(=O)Nc1cc(-c2nc(C(F)(F)F)cs2)c(-c2cnc3c(c2)c(=O)c(C(=O)OCCO)cn3CC)cn1 [Example 17, 2-hydroxyethyl 1-ethyl-6-{6-[(ethylcarbamoyl)amino]-4-[4-(trifluoromethyl)-1,3-thiazol-2-yl]pyridin-3-yl}-4-oxo-1,4-dihydro-1,8-naphthyridine-3-carboxylate] | 106%
6 | CCNC(=O)Nc1cc(-c2nc(C(F)(F)F)cs2)c(-c2cc3c(=O)c(C(=O)O)cn([C@@H]4CCCN(CCN5CCOCC5)C4)c3cn2)cn1 [Example 49] | 98%
7 | CCNC(=O)Nc1cc(-c2nc(C(F)(F)F)cs2)c(-c2cnc3c(c2)c(=O)c(C(=O)O)cn3[C@@H]2CCCN(CCN(CC)CC)C2)cn1 [Example 54] | 106%
8 | CCNC(=O)Nc1cc(-c2nc(C(F)(F)F)cs2)c(-c2cnc3c(c2)c(=O)c(C(=O)O)cn3[C@H]2CCCN(CCN3CCOCC3)C2)cn1 [Example 31] | 104%
9 | CCNC(=O)Nc1cc(-c2nc(C(F)(F)F)cs2)c(-c2cnc3c(c2)c(=O)c(C(=O)OCCCO)cn3CC)cn1 [Example 18, 3-hydroxypropyl 1-ethyl-6-{6-[(ethylcarbamoyl)amino]-4-[4-(trifluoromethyl)-1,3-thiazol-2-yl]pyridin-3-yl}-4-oxo-1,4-dihydro-1,8-naphthyridine-3-carboxylate] | 108%
10 | CCNC(=O)Nc1cc(-c2nc(C(F)(F)F)cs2)c(-c2cc3c(=O)c(C(=O)O)cn(CC(C)N4CCOCC4)c3cn2)cn1 (stereo not shown) [Example 43] | 94%
11 | CCNC(=O)Nc1cc(-c2nc(CC(C)C)cs2)c(-c2cnc3c(c2)c(=O)c(C(=O)O)cn3[C@H]2CCCN(CCN(CC)CC)C2)cn1 [Example 34, (S)-1-(1-(2-(diethylamino)ethyl)piperidin-3-yl)-6-(6-(3-ethylureido)-4-(4-isobutylthiazol-2-yl)pyridin-3-yl)-4-oxo-1,4-dihydro-1,8-naphthyridine-3-carboxylic acid] | 103%
12 | CCNC(=O)Nc1cc(-c2nc(C(F)(F)F)cs2)c(-c2cc3c(=O)c(C(=O)O)cn([C@@H]4CCCN(CCN(CC)CC)C4)c3cn2)cn1 [Example 53] | 103%
13 | CCNC(=O)Nc1cc(-c2nc(C(F)(F)F)cs2)c(-c2cnc3c(c2)c(=O)c(C(=O)O)cn3CCN2CCOCC2)cn1 [Example 56] | 101%
14 | CCNC(=O)Nc1cc(-c2nc(C(F)(F)F)cs2)c(-c2cc3c(=O)c(C(=O)O)cn(CC)c3nc2N2CCN(C)CC2)cn1 [Example 38, 1-ethyl-6-(6-(3-ethylureido)-4-(4-(trifluoromethyl)thiazol-2-yl)pyridin-3-yl)-7-(4-methylpiperazin-1-yl)-4-oxo-1,4-dihydro-1,8-naphthyridine-3-carboxylic acid] | 101%
15 | CCNC(=O)Nc1cc(-c2nc(C(F)(F)F)cs2)c(-c2cnc3c(c2)c(=O)c(C(=O)O)cn3C(COC)COC)cn1 [Example 55] | 103%
16 | CCNC(=O)Nc1cc(-c2nc(C(F)(F)F)cs2)c(-c2cc3c(=O)c(C(=O)O)cn(Cc4ccncc4)c3cn2)cn1 [Example 72] | 105%
